Data from patent US20260001871A1, “TRIAZOLE DERIVATIVES AS MODULATORS OF MAS-RELATED G-PROTEIN RECEPTOR D” (ESCIENT PHARMACEUTICALS, INC., priority 2022, published 2026).

Target: human MRGPRD (Homo sapiens, UniProt Q8TDS7)
Assay: MRGPRD antagonist activity, IP-One HTRF assay in CHO cells stably expressing human MRGPRD (versus 100 μM β-Alanine agonist)
Type: cell-based
Summary of the method: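 IP-1 HTRF read-out, with IC50 from HTRF ratio curves and percent antagonism relative to maximal efficacy (mean, SEM). Antagonists and agonist were co-incubated 1 h at 37 °C plus 1 h at room temperature on overnight-plated MRGPRD-CHO cells in LiCl-containing Tris buffer, pH 8.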

Chain of human MRGPRD (Q8TDS7 whole entry): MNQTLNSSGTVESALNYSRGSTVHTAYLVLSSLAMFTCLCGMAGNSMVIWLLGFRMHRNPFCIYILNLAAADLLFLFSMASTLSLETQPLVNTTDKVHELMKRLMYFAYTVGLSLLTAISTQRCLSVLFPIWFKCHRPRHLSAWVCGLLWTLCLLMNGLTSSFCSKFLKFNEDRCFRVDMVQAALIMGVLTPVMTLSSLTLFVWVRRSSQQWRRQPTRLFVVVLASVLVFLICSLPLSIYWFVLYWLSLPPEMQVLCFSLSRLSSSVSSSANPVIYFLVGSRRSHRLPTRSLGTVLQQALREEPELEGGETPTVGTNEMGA

Row | SMILES | IC50
1 | CC(NC(=O)c1nnn(-c2ccc(-c3ccc(C#N)cc3)cc2)c1C1CC1)c1cnn(C)c1 (stereo not drawn) [Compound 15-8] | 1000 to 3000 nM
2 | CC(NC(=O)c1nnn(-c2ccc(-c3ccc(CC#N)cc3)cc2)c1C1CC1)c1cnn(C)c1 (stereo not drawn) [Compound 15-9] | > 3000 nM
3 | CC(NC(=O)c1nnn(-c2ccc(-c3ccc(C#N)cc3)cc2)c1C1CC1)c1ccn(C)n1 (stereo not drawn) [Compound 15-10] | > 3000 nM
4 | Cc1ncccc1CNC(=O)c1nnn(-c2ccc(-c3c(C)nn(C)c3C)cc2)c1C1CC1 [Compound 15-11] | 100 to 500 nM
5 | Cc1ccc(CNC(=O)c2nnn(-c3ccc(-c4c(C)nn(C)c4C)cc3)c2C2CC2)cn1 [Compound 15-12] | 100 to 500 nM
6 | Cc1nn(C)c(C)c1-c1ccc(-n2nnc(C(=O)NC(C)(C)c3cccnc3)c2C2CC2)cc1 [Compound 15-13] | 500 to 1000 nM
7 | COc1ccc(-c2ccc(-n3nnc(C(=O)Nc4ccnc(C)c4)c3C3CC3)cc2)cn1 [Compound 15-14] | 100 to 500 nM
8 | CCn1cc(CNC(=O)c2nnn(-c3ccc(-c4cccc(C#N)c4)cc3)c2C2CC2)cn1 [Compound 15-15] | 1000 to 3000 nM
9 | Cc1ccc(C2(NC(=O)c3nnn(-c4ccc(-c5c(C)nn(C)c5C)cc4)c3C3CC3)CC2)cn1 [Compound 15-17] | 1000 to 3000 nM
10 | CCc1ncccc1C1(NC(=O)c2nnn(-c3ccc(-c4ccc(C#N)cc4)cc3)c2C2CC2)CC1 [Compound 15-18] | 1000 to 3000 nM
11 | CCn1cc(CNC(=O)c2nnn(-c3ccc(-c4c(C)nn(C)c4C)cc3)c2C2CC2)cn1 [Compound 15-19] | 100 to 500 nM
12 | Cc1cc(NC(=O)c2nnn(-c3ccc(-c4ccc(C(F)F)nc4)cc3)c2C2CC2)ccn1 [Compound 15-20] | 100 to 500 nM
13 | COCc1ccc(-c2ccc(-n3nnc(C(=O)Nc4ccnc(C)c4)c3C3CC3)cc2)cn1 [Compound 15-21] | 500 to 1000 nM
14 | Cc1ccc(CNC(=O)c2nnn(-c3ccc(-c4c(C)nn(-c5ccccc5)c4C)cc3)c2C2CC2)cn1 [Compound 15-22] | < 100 nM
15 | CCc1ccc(-c2ccc(-n3nnc(C(=O)Nc4ccnc(C)c4)c3C3CC3)cc2)cn1 [Compound 15-23] | 100 to 500 nM
16 | Cc1cc(NC(=O)c2nnn(-c3ccc(-c4ccc(CC#N)nc4)cc3)c2C2CC2)ccn1 [Compound 15-24] | 100 to 500 nM
17 | Cc1ncccc1CNC(=O)c1nnn(-c2ccc(-c3ccc(C#N)c(F)c3)cc2)c1C1CC1 [Compound 16-1, 1-(4′-cyano-3′-fluoro-[1,1′-biphenyl]-4-yl)-5-cyclopropyl-N-((2-methylpyridin-3-yl)methyl)-1H-1,2,3-triazole-4-carboxamide] | < 100 nM
18 | Cc1ncccc1CNC(=O)c1nnn(-c2ccc(-c3ccc(CC#N)cc3)cc2)c1C1CC1 [Compound 16-2] | 100 to 500 nM
19 | Cc1ncccc1CNC(=O)c1nnn(-c2ccc(-c3cccc(CC#N)c3)cc2)c1C1CC1 [Compound 16-3] | 100 to 500 nM
20 | CCn1cc(CNC(=O)c2nnn(-c3ccc(-c4ccc(C#N)c(F)c4)cc3)c2C2CC2)cn1 [Compound 16-4] | 100 to 500 nM
21 | CCn1cc(CNC(=O)c2nnn(-c3ccc(-c4cccc(CC#N)c4)cc3)c2C2CC2)cn1 [Compound 16-5] | 100 to 500 nM
22 | Cc1ccc(CNC(=O)c2nnn(-c3ccc(-c4c(C)nn5ccccc45)cc3)c2C2CC2)cn1 [Compound 17-1] | 100 to 500 nM
23 | Cc1cc(NC(=O)c2nnn(-c3ccc(-c4ccc(F)nc4)cc3)c2C2CC2)ccn1 [Compound 17-2] | 100 to 500 nM

Row | SMILES | IC50
24 | Cc1ccc(CNC(=O)c2nnn(-c3ccc(-c4ccc(C#N)c(F)c4)cc3)c2C2CC2)cn1 [Compound 17-3, 1-(4′-cyano-3′-fluoro-[1,1′-biphenyl]-4-yl)-5-cyclopropyl-N-((6-methylpyridin-3-yl)methyl)-1H-1,2,3-triazole-4-carboxamide] | 100 to 500 nM
25 | CCn1cc(CNC(=O)c2nnn(-c3ccc(-c4ccc(C#N)cc4)cc3)c2C2CC2)cn1 [Compound 17-4] | 100 to 500 nM
26 | CCn1cc(CNC(=O)c2nnn(-c3ccc(-c4ccc(CC#N)cc4)cc3)c2C2CC2)cn1 [Compound 17-5] | 100 to 500 nM
27 | COc1ccc(C2(NC(=O)c3nnn(-c4ccc(-c5ccc(C#N)cc5)cc4)c3C3CC3)CC2)cn1 [Compound 17-6] | 100 to 500 nM
28 | CCn1cc(CNC(=O)c2nnn(-c3ccc(-c4ccc(F)cc4)cc3)c2C2CC2)cn1 [Compound 17-7] | 1000 to 3000 nM
29 | CCn1cc(CNC(=O)c2nnn(-c3ccc(-c4ccc(C(N)=O)cc4)cc3)c2C2CC2)cn1 [Compound 17-8] | 1000 to 3000 nM
30 | Cc1ccc(-c2ccc(-n3nnc(C(=O)Nc4ccnc(C)c4)c3C3CC3)cc2)cn1 [Compound 17-9] | 100 to 500 nM
31 | Cc1nn(C)c(C)c1-c1ccc(-n2nnc(C(=O)Nc3ccncc3)c2C(C)C)cc1 [Compound 17-10] | < 100 nM
32 | CCn1cc(CNC(=O)c2nnn(-c3ccc(-c4c(C)nn(C)c4C)cc3)c2C(C)C)cn1 [Compound 17-11] | < 100 nM
33 | COc1cc(-c2ccc(C#N)cc2)ccc1-n1nnc(C(=O)Nc2ccnc(C)c2)c1C(C)C [Compound 17-12] | 100 to 500 nM
34 | CCn1cc(CNC(=O)c2nnn(-c3ccc(-c4ccccc4)cc3)c2C(C)C)cn1 [Compound 17-13] | 100 to 500 nM
35 | Cc1cc(NC(=O)c2nnn(-c3ccc(-c4ccc(C#N)cc4)cc3F)c2C(C)C)ccn1 [Compound 17-14] | 100 to 500 nM
36 | Cc1cc(NC(=O)c2nnn(-c3ccc(-c4ccc(C#N)cc4)cn3)c2C(C)C)ccn1 [Compound 17-15] | 100 to 500 nM
37 | Cc1nn(C)c(C)c1-c1ccc(-n2nnc(C(=O)Nc3ccccc3)c2C(C)C)cc1 [Compound 17-16] | 100 to 500 nM
38 | CCn1cc(CNC(=O)c2nnn(-c3ccc(-c4ccc(C#N)cc4)cc3)c2C(C)C)cn1 [Compound 17-17] | 100 to 500 nM
39 | Cc1nn(C)c(C)c1-c1ccc(-n2nnc(C(=O)Nc3cccc(C#N)c3)c2C(C)C)cc1 [Compound 17-18] | 100 to 500 nM
40 | CCn1cc(CNC(=O)c2nnn(-c3ccc(-c4ccc(C#N)cc4)cc3F)c2C(C)C)cn1 [Compound 17-19] | 100 to 500 nM
41 | CCn1cc(CNC(=O)c2nnn(-c3ccc(-c4ccc(C#N)cc4)cn3)c2C(C)C)cn1 [Compound 17-20] | 100 to 500 nM
42 | CCn1cc(CNC(=O)c2nnn(-c3ccc(-c4ccc(C#N)cc4)cc3OC)c2C(C)C)cn1 [Compound 17-21] | 100 to 500 nM
43 | Cc1nn(C)c(C)c1-c1ccc(-n2nnc(C(=O)NCc3cccnc3)c2C(C)C)cc1 [Compound 17-22] | 100 to 500 nM
44 | CCn1cc(C2(NC(=O)c3nnn(-c4ccc(-c5ccc(C#N)c(F)c5)cc4)c3C(C)C)CC2)cn1 [Compound 17-23] | 100 to 500 nM
45 | Cc1nn(C)c(C)c1-c1ccc(-n2nnc(C(=O)NC3C(C)(C)C3(C)C)c2C(C)C)cc1 [Compound 17-24] | 100 to 500 nM
46 | Cc1nn(C)c(C)c1-c1ccc(-n2nnc(C(=O)Nc3ccccn3)c2C(C)C)cc1 [Compound 17-25] | 100 to 500 nM

Row | SMILES | IC50
47 | CCn1cc(CNC(=O)c2nnn(-c3ccc(-c4ccc(C#N)cc4)cc3)c2C2CCC2)cn1 [Compound 17-26] | 500 to 1000 nM
48 | CC(C)c1c(C(=O)Nc2ccncc2)nnn1-c1ccc(-c2cnn(C)c2)cc1 [Compound 17-27] | 500 to 1000 nM
49 | Cc1cc(NC(=O)c2nnn(-c3ccc(-c4ccc(C#N)cc4)cc3)c2C(C)C)ccn1 [Compound 17-28] | 500 to 1000 nM
50 | Cc1nn(C)c(C)c1-c1ccc(-n2nnc(C(=O)Nc3cccnc3)c2C(C)C)cc1 [Compound 17-29] | 500 to 1000 nM
51 | CC(C)c1c(C(=O)Nc2cccc(C#N)c2)nnn1-c1ccc(-c2cnn(C)c2)cc1 [Compound 17-30] | 500 to 1000 nM
52 | Cc1cc(NC(=O)c2nnn(-c3ccc(-c4ccccc4)cc3)c2C(C)C)ccn1 [Compound 17-31] | 1000 to 3000 nM
53 | CC(C)c1c(C(=O)NC2(c3cccnc3)CC2)nnn1-c1ccc(-c2ccc(C#N)cc2)cc1 [Compound 17-32] | 1000 to 3000 nM
54 | Cc1ccc(CNC(=O)c2nnn(-c3ccc(-c4ccc(C#N)nc4)cc3)c2C(C)C)cn1 [Compound 17-33] | 1000 to 3000 nM
55 | Cc1nn(C)c(C)c1-c1ccc(-n2nnc(C(=O)NC3CC3)c2C(C)C)cc1 [Compound 17-34] | > 3000 nM
56 | N#Cc1ccc(-c2ccc(-n3nnc(C(=O)NC4(c5cncc(Cl)c5)CC4)c3C3CC3)cc2)cc1 [Compound 18-1] | 100 to 500 nM
57 | CCc1ccc(C2(NC(=O)c3nnn(-c4ccc(-c5ccc(C#N)cc5)cc4)c3C3CC3)CC2)cn1 [Compound 18-2] | 100 to 500 nM
58 | N#Cc1ccc(-c2ccc(-n3nnc(C(=O)NC4(c5cccnc5)CC4)c3C3CC3)cc2)cc1 [Compound 18-3, 1-(4′-cyano-[1,1′-biphenyl]-4-yl)-5-cyclopropyl-N-(1-(pyridin-3-yl)cyclopropyl)-1H-1,2,3-triazole-4-carboxamide] | 500 to 1000 nM
59 | NC(=O)c1ccc(-c2ccc(-n3nnc(C(=O)NC4(c5cccnc5)CC4)c3C3CC3)cc2)cc1 [Compound 18-4] | 1000 to 3000 nM
60 | Cc1cncc(C2(NC(=O)c3nnn(-c4ccc(-c5ccc(C#N)cc5)cc4)c3C3CC3)CC2)c1 [Compound 18-5] | 1000 to 3000 nM
61 | COc1cncc(C2(NC(=O)c3nnn(-c4ccc(-c5ccc(C#N)cc5)cc4)c3C3CC3)CC2)c1 [Compound 18-6] | 1000 to 3000 nM
62 | COc1ccc(C2(NC(=O)c3nnn(-c4ccc(-c5ccc(C(N)=O)cc5)cc4)c3C3CC3)CC2)cn1 [Compound 18-7] | 1000 to 3000 nM
63 | N#Cc1ccc(-c2ccc(-n3nnc(C(=O)NC4(c5cccnc5)CC4)c3C3CC3)cc2)cn1 [Compound 18-8] | 1000 to 3000 nM
64 | N#CCc1ccc(-c2ccc(-n3nnc(C(=O)NC4(c5cccnc5)CC4)c3C3CC3)cc2)cc1 [Compound 18-9] | 1000 to 3000 nM
65 | NC(=O)c1ccc(-c2ccc(-n3nnc(C(=O)NC4(c5cccnc5)CC4)c3C3CC3)cc2)cn1 [Compound 18-10] | 1000 to 3000 nM
66 | Cc1nn(-c2ccccc2)c(C)c1-c1ccc(-n2nnc(C(=O)NC3(c4cccnc4)CC3)c2C2CC2)cc1 [Compound 18-11] | < 100 nM
67 | CCn1cc(C2(NC(=O)c3nnn(-c4ccc(-c5ccccc5)cc4)c3C3CC3)CC2)cn1 [Compound 18-12] | 1000 to 3000 nM
68 | N#Cc1ccc(-c2ccc(-n3nnc(C(=O)NC4(c5cncc(Cl)c5)CC4)c3C3CC3)cc2)cc1F [Compound 18-13] | 100 to 500 nM
69 | CCn1cc(C2(NC(=O)c3nnn(-c4ccc(-c5ccc(C#N)c(F)c5)cc4)c3C3CC3)CC2)cn1 [Compound 18-14] | 100 to 500 nM
